Experiment [1] addresses Phosphatidylinositol 4,5-bisphosphate 3-kinase catalytic subunit gamma isoform (Homo sapiens, UniProt P48736). The experiment can be described thus: PI3K-gamma Scintillation Proximity Assay. The text has this:
(§1) Materials: [γ-33P]ATP (10 mCi/mL) and Wheat Germ Agglutinin (WGA) YSi SPA Scintillation Beads was purchased from Perkin Elmer (Waltham, Mass.). Lipid kinase substrate, D-myo-Phosphatidylinositol 4,5-bisphosphate (PtdIns(4,5)P2)D (+)-sn-1,2-di-O-octanoylglyceryl, 3-O-phospho linked (PIP2), CAS 204858-53-7, was purchased from Echelon Biosciences (Salt Lake City, Utah). PI3Kγ (p110γ) Recombinant Human Protein was purchased from Life technology (Grand Island, N.Y.). ATP, MgCl2, DTT, EDTA, MOPS and CHAPS were purchased from Sigma Aldrich (St. Louis, Mo.).The kinase reaction was conducted in polystyrene 384-well Greiner Bio-one white plate from Thermo Fisher Scientific in a final volume of 25 μL. Inhibitors were first diluted serially in DMSO and added to the plate wells before the addition of other reaction components. The final concentration of DMSO in the assay was 2%. The PI3Kγ assay was carried out at room temperature in 20 mM MOPS, pH 6.7, 10 mM MgCl2, 5 mM DTT and CHAPS 0.03%. Reactions were initiated by the addition of ATP, the final reaction mixture consisted of 20 μM PIP2, 2 μM ATP, 0.5 μCi [γ-33P] ATP, 13 nM PI3Kγ. […] After the plate sealing, plates were shaken overnight at room temperature and centrifuged at 1500 rpm for 10 min, the radioactivity of the product was determined by scintillation counting on Topcount (Perkin-Elmer). […]

Experiment [2] concerns the target T1, Phosphatidylinositol 4,5-bisphosphate 3-kinase catalytic subunit delta isoform (Homo sapiens, UniProt O00329).
T1 sequence (O00329 whole entry): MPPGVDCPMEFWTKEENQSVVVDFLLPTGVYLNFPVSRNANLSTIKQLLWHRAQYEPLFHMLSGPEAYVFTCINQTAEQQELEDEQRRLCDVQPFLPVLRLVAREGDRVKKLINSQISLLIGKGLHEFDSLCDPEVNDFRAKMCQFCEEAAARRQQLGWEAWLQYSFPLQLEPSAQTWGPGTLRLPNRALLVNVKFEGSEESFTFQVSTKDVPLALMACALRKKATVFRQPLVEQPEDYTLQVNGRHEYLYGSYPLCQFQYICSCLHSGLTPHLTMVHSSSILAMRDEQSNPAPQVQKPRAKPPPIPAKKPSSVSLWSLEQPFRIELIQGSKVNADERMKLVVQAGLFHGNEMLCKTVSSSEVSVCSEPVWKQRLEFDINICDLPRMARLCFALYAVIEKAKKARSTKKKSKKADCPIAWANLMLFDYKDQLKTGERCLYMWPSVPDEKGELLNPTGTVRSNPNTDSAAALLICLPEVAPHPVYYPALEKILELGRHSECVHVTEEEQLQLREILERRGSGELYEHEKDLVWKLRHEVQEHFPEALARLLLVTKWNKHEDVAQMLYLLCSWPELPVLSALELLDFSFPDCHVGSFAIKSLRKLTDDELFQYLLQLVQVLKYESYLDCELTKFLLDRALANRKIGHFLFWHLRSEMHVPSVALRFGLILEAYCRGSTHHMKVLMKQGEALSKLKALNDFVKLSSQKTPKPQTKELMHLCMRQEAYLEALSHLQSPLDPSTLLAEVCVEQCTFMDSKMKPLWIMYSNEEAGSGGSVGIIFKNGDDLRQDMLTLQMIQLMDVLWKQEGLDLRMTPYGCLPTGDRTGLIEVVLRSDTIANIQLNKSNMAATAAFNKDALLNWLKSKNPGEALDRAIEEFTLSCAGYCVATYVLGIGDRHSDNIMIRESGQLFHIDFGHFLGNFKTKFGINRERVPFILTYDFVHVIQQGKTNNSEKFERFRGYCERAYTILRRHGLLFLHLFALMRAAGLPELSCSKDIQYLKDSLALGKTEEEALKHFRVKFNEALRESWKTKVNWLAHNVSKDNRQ
As to the kind of experiment: PI3Kdelta Scintillation Proximity Assay.
Source text: as §1, with “PI3Kδ (p110δ/p85α)” for “PI3Kγ (p110γ)”, “Eurofins (St Charles, Mo.).” for “Life technology (Grand Island, N.Y.).”, “PI3Kδ” for “PI3Kγ”, “3.4” for “13”, “PI3Kδ.” for “PI3Kγ.”, “(PerkinElmer).” for “(Perkin-Elmer).”

Phosphatidylinositol 4,5-bisphosphate 3-kinase catalytic subunit gamma isoform, sequence (P48736 whole entry, canonical isoform): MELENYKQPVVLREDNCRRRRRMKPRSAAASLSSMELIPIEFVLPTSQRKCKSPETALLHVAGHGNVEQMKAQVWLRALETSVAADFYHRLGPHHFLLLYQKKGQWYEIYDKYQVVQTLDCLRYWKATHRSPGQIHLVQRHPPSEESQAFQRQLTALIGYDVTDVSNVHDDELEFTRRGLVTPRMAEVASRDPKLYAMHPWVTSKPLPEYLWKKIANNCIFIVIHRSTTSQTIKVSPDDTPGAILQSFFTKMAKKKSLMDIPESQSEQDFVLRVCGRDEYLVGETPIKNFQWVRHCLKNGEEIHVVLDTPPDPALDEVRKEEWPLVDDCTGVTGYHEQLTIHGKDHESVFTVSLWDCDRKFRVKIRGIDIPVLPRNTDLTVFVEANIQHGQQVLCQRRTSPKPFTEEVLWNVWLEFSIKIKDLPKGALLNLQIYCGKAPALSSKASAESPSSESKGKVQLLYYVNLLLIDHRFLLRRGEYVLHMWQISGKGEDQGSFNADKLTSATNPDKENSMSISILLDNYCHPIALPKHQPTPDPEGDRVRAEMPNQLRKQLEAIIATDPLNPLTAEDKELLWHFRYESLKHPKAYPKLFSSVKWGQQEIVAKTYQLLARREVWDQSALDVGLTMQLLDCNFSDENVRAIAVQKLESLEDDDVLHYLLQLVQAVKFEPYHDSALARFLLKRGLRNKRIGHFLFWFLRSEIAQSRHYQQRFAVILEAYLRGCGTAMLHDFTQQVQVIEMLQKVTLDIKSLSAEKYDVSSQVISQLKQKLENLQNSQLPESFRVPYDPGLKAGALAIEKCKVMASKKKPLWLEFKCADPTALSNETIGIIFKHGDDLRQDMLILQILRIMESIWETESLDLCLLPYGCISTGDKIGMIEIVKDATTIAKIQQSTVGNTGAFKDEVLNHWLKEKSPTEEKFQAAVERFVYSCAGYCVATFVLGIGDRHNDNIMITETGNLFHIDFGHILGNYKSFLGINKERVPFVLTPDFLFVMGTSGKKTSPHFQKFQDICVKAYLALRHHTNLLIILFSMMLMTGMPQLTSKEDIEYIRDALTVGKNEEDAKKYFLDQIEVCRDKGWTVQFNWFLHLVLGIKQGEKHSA

For `C#Cc1ccccc1N1CCN(c2nc(-c3cc(C(O)(C(N)=O)C(F)(F)F)ccc3C)cnc2N)CC1` (configuration not stated) [US11046658, Example 122], the half-inhibitory concentration (IC50) in experiment [1] and in experiment [2] was below 100 nM throughout.

(Values after BindingDB's records for patent US11046658 (Incyte, 2021).)
